In ChEMBL document CHEMBL1153281, “Synthesis and evaluation of aniline headgroups for alkynyl thienopyrimidine dual EGFR/ErbB-2 kinase inhibitors” (Bioorg Med Chem Lett, 2009):

Experiments:
[1] = Protein binding in rat plasma by HPLC; assay type: ADME, cell-free; conditions: read-out: PPB (converted)
BT-474 = assay: Antiproliferative activity against human BT474 cells overexpressing ErbB2 after 3 days; assay type: functional, cell-based; conditions: BT-474, 72 h
HFF = assay: cells; assay type: ADME, cell-based; conditions: Homo sapiens
HN5 [2] = assay: Antiproliferative activity against human HN5 cells overexpressing EGFR after 3 days; assay type: functional, cell-based; conditions: HN5, 72 h
Mus musculus = assay: Dose normalized AUC in mouse at 10 mg/kg, po after 6 hrs; assay type: ADME, organism-based; parameters: time < 6 hr, dose 10 mg/kg, route oral; conditions: in vivo
[3] = target: T1, Epidermal growth factor receptor (Homo sapiens, UniProt P00533)
T1 sequence (P00533 whole entry): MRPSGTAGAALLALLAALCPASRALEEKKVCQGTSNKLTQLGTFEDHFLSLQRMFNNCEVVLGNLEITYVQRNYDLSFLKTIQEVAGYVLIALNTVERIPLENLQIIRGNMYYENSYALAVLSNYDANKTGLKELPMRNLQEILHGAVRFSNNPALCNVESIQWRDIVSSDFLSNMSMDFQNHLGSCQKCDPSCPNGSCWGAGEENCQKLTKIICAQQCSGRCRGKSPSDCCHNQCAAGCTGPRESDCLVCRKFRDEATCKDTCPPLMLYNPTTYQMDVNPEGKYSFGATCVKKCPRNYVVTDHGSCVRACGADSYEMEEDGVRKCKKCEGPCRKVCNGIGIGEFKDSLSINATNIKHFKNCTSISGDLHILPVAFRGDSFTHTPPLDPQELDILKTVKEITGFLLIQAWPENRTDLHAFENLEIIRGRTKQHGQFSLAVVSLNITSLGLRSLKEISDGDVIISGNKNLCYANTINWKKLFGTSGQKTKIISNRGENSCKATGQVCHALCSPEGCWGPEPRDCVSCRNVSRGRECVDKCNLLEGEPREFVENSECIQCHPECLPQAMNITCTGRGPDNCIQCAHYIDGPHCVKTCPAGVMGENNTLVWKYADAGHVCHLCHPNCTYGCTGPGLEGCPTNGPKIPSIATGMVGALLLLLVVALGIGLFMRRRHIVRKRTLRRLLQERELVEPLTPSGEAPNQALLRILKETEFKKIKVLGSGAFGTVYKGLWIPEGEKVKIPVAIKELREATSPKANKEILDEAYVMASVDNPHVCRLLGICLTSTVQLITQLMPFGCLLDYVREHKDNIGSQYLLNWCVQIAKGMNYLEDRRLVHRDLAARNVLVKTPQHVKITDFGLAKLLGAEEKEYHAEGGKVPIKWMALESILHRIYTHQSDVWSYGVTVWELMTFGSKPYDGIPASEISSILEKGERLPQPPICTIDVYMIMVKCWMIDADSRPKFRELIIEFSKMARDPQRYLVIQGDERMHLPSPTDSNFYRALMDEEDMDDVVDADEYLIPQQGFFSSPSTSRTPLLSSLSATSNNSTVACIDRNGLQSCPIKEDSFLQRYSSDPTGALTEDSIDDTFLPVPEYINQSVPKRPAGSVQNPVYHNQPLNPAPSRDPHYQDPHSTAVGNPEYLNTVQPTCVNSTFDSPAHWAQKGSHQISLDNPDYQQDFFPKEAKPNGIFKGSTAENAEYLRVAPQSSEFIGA
Description: Inhibition of EGFR by HTRF assay

[4] = target: T2, Receptor tyrosine-protein kinase erbB-2 (Homo sapiens, UniProt P04626); assay: Inhibition of ErbB2 by HTRF assay
T2 sequence (P04626 whole entry): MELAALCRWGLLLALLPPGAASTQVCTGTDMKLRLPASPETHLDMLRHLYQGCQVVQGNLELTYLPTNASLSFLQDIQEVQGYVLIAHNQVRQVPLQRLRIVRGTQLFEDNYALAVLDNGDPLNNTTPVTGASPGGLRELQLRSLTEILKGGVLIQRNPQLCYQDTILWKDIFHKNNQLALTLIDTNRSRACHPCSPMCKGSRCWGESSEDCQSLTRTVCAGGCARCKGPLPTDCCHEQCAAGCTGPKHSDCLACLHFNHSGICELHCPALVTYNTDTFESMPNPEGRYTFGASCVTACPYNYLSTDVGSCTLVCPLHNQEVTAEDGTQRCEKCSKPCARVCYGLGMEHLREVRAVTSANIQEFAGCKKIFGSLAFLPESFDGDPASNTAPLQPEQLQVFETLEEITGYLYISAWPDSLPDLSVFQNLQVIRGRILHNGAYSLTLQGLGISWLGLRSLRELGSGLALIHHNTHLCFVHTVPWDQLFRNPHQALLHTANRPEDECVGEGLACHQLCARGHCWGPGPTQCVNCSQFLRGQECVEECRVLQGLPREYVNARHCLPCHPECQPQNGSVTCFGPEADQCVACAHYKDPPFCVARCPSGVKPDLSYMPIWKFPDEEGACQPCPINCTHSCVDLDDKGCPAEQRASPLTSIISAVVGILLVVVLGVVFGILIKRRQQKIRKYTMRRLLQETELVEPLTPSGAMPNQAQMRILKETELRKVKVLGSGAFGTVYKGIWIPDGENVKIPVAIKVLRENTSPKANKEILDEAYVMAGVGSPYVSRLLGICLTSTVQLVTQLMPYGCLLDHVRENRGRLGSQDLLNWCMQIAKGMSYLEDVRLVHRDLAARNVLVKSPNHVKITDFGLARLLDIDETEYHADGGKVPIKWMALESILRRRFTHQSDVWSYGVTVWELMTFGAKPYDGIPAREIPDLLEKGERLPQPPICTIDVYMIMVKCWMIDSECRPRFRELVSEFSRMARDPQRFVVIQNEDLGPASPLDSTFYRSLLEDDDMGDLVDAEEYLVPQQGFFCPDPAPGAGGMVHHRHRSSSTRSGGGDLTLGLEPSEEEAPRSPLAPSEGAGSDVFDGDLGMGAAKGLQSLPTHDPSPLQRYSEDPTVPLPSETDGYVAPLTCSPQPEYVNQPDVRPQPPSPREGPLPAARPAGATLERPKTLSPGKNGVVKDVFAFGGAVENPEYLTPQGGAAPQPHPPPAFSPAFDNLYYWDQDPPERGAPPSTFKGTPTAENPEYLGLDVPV

[5] = target: T1, Epidermal growth factor receptor; assay: Inhibition of EGFR by SPA assay
[6] = target: T2, Receptor tyrosine-protein kinase erbB-2; assay: Inhibition of ErbB2 by SPA assay
HN5 [7] = assay: Ratio of IC50 for human HN5 cells to IC50 for hman BT474 cells; assay type: functional

| SMILES | fraction unbound [1] | IC50 (BT-474) | IC50 (HFF) | IC50 (HN5 [2]) | AUC (Mus musculus) | IC50 [3] | IC50 [4] | IC50 [5] | IC50 [6] | Ratio IC50 (HN5 [7]) |
| --- | --- | --- | --- | --- | --- | --- | --- | --- | --- | --- |
| O=C(O[C@H]1CN[C@H](C#Cc2cc3ncnc(Nc4ccc(OCc5cccc(F)c5)c(Cl)c4)c3s2)C1)N1CCOCC1 [GW869810X] | 0.02 | 90 nM | > 1000 nM | 260 nM | 91 ng·h/mL/mg/kg | – | – | – | – | – |
| O=C(O[C@H]1CN[C@H](C#Cc2cc3ncnc(Nc4ccc5c(ccn5Cc5ccccc5)c4)c3s2)C1)N1CCOCC1 | – | 110 nM | > 1000 nM | 190 nM | – | 90 nM | 60 nM | – | – | – |
| O=C(O[C@H]1CN[C@H](C#Cc2cc3ncnc(Nc4ccc(Oc5ccnc6ccc(F)cc56)c(Cl)c4)c3s2)C1)N1CCOCC1 | 0.03 | 140 nM | > 1000 nM | 390 nM | – | 280 nM | 180 nM | – | – | – |
| O=C(O[C@H]1CN[C@H](C#Cc2cc3ncnc(Nc4ccc5c(ccn5Cc5cscn5)c4)c3s2)C1)N1CCOCC1 | – | 120 nM | > 1000 nM | 550 nM | – | 680 nM | 180 nM | – | – | – |
| O=C(O[C@H]1CN[C@H](C#Cc2cc3ncnc(Nc4ccc(Sc5ccccn5)cc4)c3s2)C1)N1CCOCC1 | – | 100 nM | > 1000 nM | 380 nM | – | 1650 nM | 220 nM | – | – | – |
| O=C(O[C@H]1CN[C@H](C#Cc2cc3ncnc(Nc4ccc5c(c4)c(F)cn5Cc4ccccc4)c3s2)C1)N1CCOCC1 | – | 120 nM | > 1000 nM | 320 nM | – | 240 nM | 210 nM | – | – | – |
| O=C(O[C@H]1CN[C@H](C#Cc2cc3ncnc(Nc4ccc(Cc5ccccc5)cc4)c3s2)C1)N1CCOCC1 | 0.036 | 70 nM | > 1000 nM | 270 nM | – | 240 nM | – | – | – | – |
| O=C(O[C@H]1CN[C@H](C#Cc2cc3ncnc(Nc4ccc5c(ccn5S(=O)(=O)c5ccsc5)c4)c3s2)C1)N1CCOCC1 | – | 120 nM | > 1000 nM | 630 nM | – | – | – | 150 nM | 120 nM | – |
| O=C(O[C@H]1CN[C@H](C#Cc2cc3ncnc(Nc4ccc5c(cnn5Cc5ccccc5)c4)c3s2)C1)N1CCOCC1 | 0.027 | 20 nM | > 1000 nM | 70 nM | 98 ng·h/mL/mg/kg | 80 nM | 50 nM | – | – | – |
| Cc1cc(Oc2ccc(Nc3ncnc4cc(C#C[C@@H]5C[C@@H](OC(=O)N6CCOCC6)CN5)sc34)cc2Cl)no1 | – | 130 nM | > 1000 nM | 1450 nM | – | 400 nM | 370 nM | – | – | – |
| O=C(O[C@H]1CN[C@H](C#Cc2cc3ncnc(Nc4ccc5c(Oc6ccccn6)cccc5c4)c3s2)C1)N1CCOCC1 | – | 100 nM | > 1000 nM | 120 nM | – | 1050 nM | 260 nM | – | – | – |
| O=C(O[C@H]1CN[C@H](C#Cc2cc3ncnc(Nc4ccc5c(cnn5Cc5cccc(F)c5)c4)c3s2)C1)N1CCOCC1 | 0.05 | – | > 1000 nM | 70 nM | 51 ng·h/mL/mg/kg | – | – | – | – | – |
| O=C(O[C@H]1CN[C@H](C#Cc2cc3ncnc(Nc4ccc5c(cnn5Cc5cc(F)ccc5F)c4)c3s2)C1)N1CCOCC1 | – | 10 nM | > 1000 nM | 250 nM | – | 33 nM | 35 nM | – | – | 20 |
| CC(c1cccc(F)c1)n1ncc2cc(Nc3ncnc4cc(C#C[C@@H]5C[C@@H](OC(=O)N6CCOCC6)CN5)sc34)ccc21 (stereo partly specified) | – | 130 nM | > 1000 nM | 70 nM | – | 120 nM | 130 nM | – | – | – |
| O=C(O[C@H]1CN[C@H](C#Cc2cc3ncnc(Nc4ccc(Oc5ccccn5)c(Cl)c4)c3s2)C1)N1CCOCC1 | 0.033 | 80 nM | > 1000 nM | 280 nM | 52 ng·h/mL/mg/kg | – | – | – | 60 nM | – |
| O=C(O[C@H]1CN[C@H](C#Cc2cc3ncnc(Nc4ccc(OCc5cccc(F)c5)nc4)c3s2)C1)N1CCOCC1 | – | 250 nM | > 1000 nM | 490 nM | – | 2600 nM | 450 nM | – | – | – |
| O=C(O[C@H]1CN[C@H](C#Cc2cc3ncnc(Nc4ccc(OCc5ccccn5)c(Cl)c4)c3s2)C1)N1CCOCC1 | 0.031 | 60 nM | > 1000 nM | 240 nM | 120 ng·h/mL/mg/kg | – | – | – | 30 nM | – |
| O=C(O[C@H]1CN[C@H](C#Cc2cc3ncnc(Nc4ccc5c(cnn5S(=O)(=O)c5cccc(F)c5)c4)c3s2)C1)N1CCOCC1 | – | 110 nM | > 1000 nM | 540 nM | – | 230 nM | 85 nM | – | – | – |
| O=C(O[C@H]1CN[C@H](C#Cc2cc3ncnc(Nc4ccc(Sc5cccc(F)c5)c(Cl)c4)c3s2)C1)N1CCOCC1 | 0.024 | 150 nM | > 1000 nM | 310 nM | – | 630 nM | 800 nM | – | – | – |
| O=C(O[C@H]1CN[C@H](C#Cc2cc3ncnc(Nc4ccc5c(ccn5CCc5ccccc5)c4)c3s2)C1)N1CCOCC1 | – | 4850 nM | > 1000 nM | 2020 nM | – | – | – | – | 2660 nM | – |
| O=C(O[C@H]1CN[C@H](C#Cc2cc3ncnc(Nc4ccc(OCc5cscn5)c(Cl)c4)c3s2)C1)N1CCOCC1 | 0.051 | 70 nM | > 1000 nM | 440 nM | – | 120 nM | 60 nM | – | – | – |
